These results are taken from publication PMC9259591, “Irigenin, a novel lead from Iris confusa for management of Helicobacter pylori infection with selective COX-2 and HpIMPDH inhibitory potential” (Scientific Reports, 2022).

Broadly, the MIC is the smallest concentration in the dilution series that meets the test's criterion for growth inhibition. In general, IC50 refers to the point on the concentration scale where inhibition reaches its midpoint.

For assay [1], the system named is H. pylori ATCC 700392. Kind of assay: anti-Helicobacter pylori activity, microwell dilution method with MTT. The format is cell-based. As for the experimental part: The anti-Helicobacter pylori activity of the PF and NPF as well as the isolated compounds was evaluated against H. pylori ATCC 700392 (type strain, obtained from the American Type Culture Collection unit (ATCC), using microwell dilution method and clarithromycin as standard drug[37]. The detailed procedures were described in the supplementary file.
The anti-Helicobacter pylori activity of the PF and NPF as well as the isolated compounds was evaluated against H. pylori ATCC 700392 (a type strain, obtained from the American Type Culture Collection unit (ATCC), using microwell dilution method and clarithromycin as standard drug ^1. The tested samples were prepared in dimethyl sulfoxide and successive ten twofold dilutions (125- 0.24 µg/mL) were carried out in a 96-well plate. Each microplate well included forty μL of Brain Heart Infusion growth medium and 10% fetal bovine serum (FBS), ten μL of inoculum and fifty μL of the tested sample. The plates were incubated for 3 days, in 5% oxygen, 10% carbon dioxide, 85 % nitrogen atmosphere at 37°C. Forty μL of 3- (4, 5-dimethyl-thiazol-2-yl)- 2,5-diphenyl-tetrazolium bromide (MTT) at a final concentration of 0.5 mg/mL freshly prepared in H2O was added to each well and incubated for 30 min. The bacteria were biologically active when change to purple color was observed ^1. While no change in MTT color indicated inhibition. Solvent control (DMSO) and the standard antibiotic (clarithromycin) were used as negative and positive controls, respectively. The H. pylori inhibition % was calculated using the given formula:
% Inhibition = Abs control – Abs sample × 100 /Abs control.

In assay [2] the target is T1, H. pylori inosine-5′-monophosphate dehydrogenase (HpIMPDH) (Helicobacter pylori, UniProt P56088).
T1 sequence (P56088 1-481): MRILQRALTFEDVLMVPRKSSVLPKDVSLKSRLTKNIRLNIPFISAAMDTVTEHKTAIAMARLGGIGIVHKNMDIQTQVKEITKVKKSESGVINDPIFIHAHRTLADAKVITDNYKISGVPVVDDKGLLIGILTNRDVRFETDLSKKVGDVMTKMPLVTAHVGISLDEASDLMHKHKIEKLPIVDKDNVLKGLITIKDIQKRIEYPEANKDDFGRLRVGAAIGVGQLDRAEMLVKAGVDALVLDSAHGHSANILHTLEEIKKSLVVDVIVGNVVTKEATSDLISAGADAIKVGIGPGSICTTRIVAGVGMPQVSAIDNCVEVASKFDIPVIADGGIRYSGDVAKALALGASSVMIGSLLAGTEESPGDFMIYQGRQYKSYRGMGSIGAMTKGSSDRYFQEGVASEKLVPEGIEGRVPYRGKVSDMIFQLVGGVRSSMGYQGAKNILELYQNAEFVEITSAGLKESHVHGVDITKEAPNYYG
Briefly: In vitro HpIMPDH inhibition assay (NADH fluorescence). More on the design: HpIMPDH inhibitory activity: unit not given here. The format is biochemical. How it is done: The assay was carried out according to Galal[40] and was described in detail in the supplementary file.
(§1) Thus, irigenin was selected to test its HpIMPDH inhibitory activity by monitoring NADH production at concentration range of 10–0.078 µM compared to clarithromycin as standard drug. Also, to examine irigenin selectivity toward the bacterial IMPDH, human hIMPDH2 inhibition potential was assayed.
The assay was carried out in a final volume of two hundred μL in black 96-well plate (Tarsons Products Pvt. Ltd., Kolkata, India) with a reaction buffer composed of one hundred mM KCl, fifty mM Tris–HCl (pH 8.6), and one mM dithiothreitol (DTT). One hundred nM H. pylori inosine-5′-monophosphate dehydrogenase (HpIMPDH) in the presence/absence of the tested compound were used. The assay mixture was then incubated at 37 °C for 10 min, and the reaction was initiated by the adding 250 μM of inosine 5ʹ‐monophosphate (IMP) and 300 μM of nicotinamide adenine dinucleotide (NAD^+) substrate buffer. The assay was allowed to proceed for 45 min at 37 °C.
The formed NADH was measured by recording the fluorescence (excitation 340 nm, emission 440 nm) using PerkinElmer EnVision Multilabel Reader (Waltham, MA) at an interval of one min. DMSO and clarithromycin were used as vehicle control and positive control, respectively. The concentration of the tested sample leading to 50% HpIMPDH inhibition (IC50) was estimated.

Assay [3] has as its target T2, Human inosine-5′-monophosphate dehydrogenase (hIMPDH2) (Homo sapiens, UniProt P12268).
T2 construct: purchased NovoCIB SAS (Lyon, France)
Kind of assay: In vitro hIMPDH2 inhibition assay (NADH absorbance at 340 nm). The note with it: for hIMPDH2 inhibitory activity: in % (unit assumed). On the set-up: key to hIMPDH2 inhibitory activity: % hIMPDH2 inhibition. The format is biochemical. How it is done:
Human inosine-5′-monophosphate dehydrogenase (hIMPDH2) was purchased from NovoCIB SAS (Lyon, France). […] The detailed procedures were described in the supplementary file.
as §1
Human inosine-5′-monophosphate dehydrogenase (hIMPDH2) was purchased from NovoCIB SAS (Lyon, France). […] The assay was carried out in 96-well plates (Tarsons, 980040). The reaction buffer consisted of hundred mM KCl, hundred mM Tris–HCl (pH 8.6), and five mM DTT, 4% v/v DMSO with or without the tested compound and 0.15 mU of purified hIMPDH2 enzyme per well (from 1.5 mg/mL stock concentration). The enzyme stock solution final volume was 2 μL per well, which was insignificant to cause final assay buffer composition change. Addition of (substrate buffer) 0.2 mM of IMP and 0.2 mM of NAD^+ initiated the assay, then it was allowed to proceed for 30 min at 37 °C. The formed NADH was measured by reading the absorbance at 340 nm. […] The concentration of the tested sample leading to 50% hIMPDH2 inhibition (IC50) was estimated.

The target in assay [4] is T3, human recombinant COX-2 (Homo sapiens, UniProt P35354).
T3 construct: purchased
T3 sequence (P35354 18-604): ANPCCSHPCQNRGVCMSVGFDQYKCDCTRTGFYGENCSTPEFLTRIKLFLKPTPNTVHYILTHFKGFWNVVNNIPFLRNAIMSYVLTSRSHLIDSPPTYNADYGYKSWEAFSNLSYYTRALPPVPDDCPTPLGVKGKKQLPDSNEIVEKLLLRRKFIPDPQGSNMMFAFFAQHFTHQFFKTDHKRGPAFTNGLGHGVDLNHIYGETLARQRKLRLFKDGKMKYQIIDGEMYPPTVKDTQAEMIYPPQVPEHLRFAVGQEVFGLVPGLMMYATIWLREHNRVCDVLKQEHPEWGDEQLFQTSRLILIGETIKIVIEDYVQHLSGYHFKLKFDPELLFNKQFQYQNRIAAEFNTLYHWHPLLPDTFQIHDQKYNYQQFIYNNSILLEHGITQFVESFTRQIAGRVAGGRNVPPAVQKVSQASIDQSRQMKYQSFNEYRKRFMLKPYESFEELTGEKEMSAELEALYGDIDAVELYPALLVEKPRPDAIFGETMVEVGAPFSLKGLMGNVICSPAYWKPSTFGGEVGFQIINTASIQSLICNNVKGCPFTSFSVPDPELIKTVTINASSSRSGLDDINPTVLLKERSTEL
Briefly: COX-2 inhibitory activity, colourimetric COX inhibitor screening assay kit. It is filed as biochemical. The note with it: for SI (COX-1/COX-2): selectivity index calculated as IC50 (COX-1)/(COX-2). How it is done: (§2) The inhibitory COX activity was assayed colourimetrically by examining the inhibition of the ovine COX-1 and human recombinant COX-2 enzymes as described by George et al.[38], using a COX inhibitor screening assay kit. The detailed procedures were described in the supplementary file.
(§3) The inhibitory COX activity was assayed colourimetrically by examining the inhibition of the ovine COX-1 and human recombinant COX-2 enzymes as described by George et al. ^2, using a COX inhibitory screening assay kit. This assay determines the COX peroxidase activity by monitoring the appearance of N,N,N',N'-tetramethyl-p-phenylenediamine (TMPD). Assay buffer (150 μL 0.1 M Tris–HCl pH 8.0), 10 μL heme and 10μL enzyme (COX-1 or COX-2) were added in each well. Ten μL of each tested sample concentration was added to each well and incubated for 15 minutes at 37°C. After incubation, 20 μL of TMPD was added to each well. For initiating the reaction, 10 μL 10 mM arachidonic acid was added and the plates were further incubated for another 2 minutes at 37°C. For terminating the reaction, 50 μL 1 N HCl and saturated stannous chloride were added.
(§4) Reaction mixture containing assay buffer and heme acted as the blank and a mixture with either COX-1 or COX-2 assay buffer and heme acted as the 100% initial activity (IA). […] The absorbances of oxidized TMPD (blue colour) were read in ELISA plate reader at 590 nm. The % inhibition was calculated using the following formula:
(§5) COX % Inhibition= [(100%IA−Inhibitor)/ 100% IA x 100]. Where, IA: 100% initial activity.
(§6) The concentration at which the tested sample produces 50% inhibition of COX-1 and/or COX-2 (IC50) was determined. The selectivity index (SI) was calculated also as IC50 (COX-1)/ (COX-2).

Assay [5] concerns the target T4, ovine COX-1 (Ovis aries, UniProt P05979).
T4 construct: purchased
Briefly: COX-1 inhibitory activity, colourimetric COX inhibitor screening assay kit. It is filed as biochemical. The conditions noted are these: ovine COX-1; ND = not detected. As for the experimental part: as §2, §3, §4, §5, §6

[6] abbreviates: Helicobacter pylori, ATCC700392; read-out: MIC (H. pylori).
The mark [7] stands for this setting: sample conc. 0.078 (range 10–0.078 µM).
Where [8] appears, read: sample conc. 0.156 (range 10–0.078 µM).
Where [9] appears, read: sample conc. 0.313 (range 10–0.078 µM).
Setting [10] is: sample conc. 0.625 (range 10–0.078 µM).
[11] abbreviates: sample conc. 1.25 (range 10–0.078 µM).
Where [12] appears, read: sample conc. 2.5 (range 10–0.078 µM).
Setting [13] is: sample conc. 5 (range 10–0.078 µM).
The mark [14] stands for this setting: sample conc. 10 (range 10–0.078 µM).
Where [15] appears, read: concentration required for 100% inhibition; H. pylori ATCC 700392; ND = not detected.

Values after ≈ are worked out from the molar mass of the structure shown. Values joined by “and” are separate entries in the source; they are usually repeats but may differ in a detail not shown here. Equal entries are not always repeated. Where two headings read alike, the source gives them in different places.

T4 sequence (P05979 25-600): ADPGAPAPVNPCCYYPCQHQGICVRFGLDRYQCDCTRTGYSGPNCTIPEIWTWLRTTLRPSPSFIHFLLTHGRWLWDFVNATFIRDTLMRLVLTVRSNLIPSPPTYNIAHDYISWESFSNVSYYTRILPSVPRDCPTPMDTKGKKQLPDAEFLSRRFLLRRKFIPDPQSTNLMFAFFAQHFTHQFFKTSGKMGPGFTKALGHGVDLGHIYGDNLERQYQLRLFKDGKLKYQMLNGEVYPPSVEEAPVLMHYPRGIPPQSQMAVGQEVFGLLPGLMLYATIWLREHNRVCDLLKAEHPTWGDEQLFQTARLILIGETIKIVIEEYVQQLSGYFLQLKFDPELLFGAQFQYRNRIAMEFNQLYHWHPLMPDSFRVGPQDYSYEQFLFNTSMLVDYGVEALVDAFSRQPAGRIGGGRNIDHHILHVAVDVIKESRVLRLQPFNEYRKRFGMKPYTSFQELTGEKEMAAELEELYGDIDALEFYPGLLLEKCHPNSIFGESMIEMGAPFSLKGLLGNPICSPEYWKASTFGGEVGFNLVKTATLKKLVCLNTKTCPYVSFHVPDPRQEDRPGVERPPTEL

On to `CC[C@H]1OC(=O)[C@H](C)[C@@H](O[C@H]2C[C@@](C)(OC)[C@@H](O)[C@H](C)O2)[C@H](C)[C@@H](O[C@@H]2O[C@H](C)C[C@H](N(C)C)[C@H]2O)[C@](C)(OC)C[C@@H](C)C(=O)[C@H](C)[C@@H](O)[C@]1(C)O` [Clarithromycin, clarithromycin, reference compound], for which, in assay [1] (setting [6]), the MIC is 1.95 µg/mL and 2.61 µM. The IC50 in assay [2] was determined as 510 ± 580 nM; in assay [3], 3100 ± 2100 nM. Also, the HpIMPDH inhibitory activity in assay [2] (setting [7]) is reported as 9.14 ± 1.70; in assay [2] (setting [8]), 21.82 ± 2.10; in assay [2] (setting [9]) it was 38.25 ± 1.50; in assay [2] (setting [10]), 56.06 ± 0.58; in assay [2] (setting [11]) it was 69.31 ± 2.10; in assay [2] (setting [12]), 81.22 ± 1.60. Besides, the HpIMPDH inhibitory activity in assay [2] (setting [13]) and in assay [2] (setting [14]) was 100 ± 0.00 throughout. The hIMPDH2 inhibitory activity in assay [3] (setting [7]) came to 0.00; in assay [3] (setting [8]), 0.00; in assay [3] (setting [9]) it was 9.74 ± 0.67; in assay [3] (setting [10]), 19.35 ± 1.50; in assay [3] (setting [11]), 27.32 ± 1.70; in assay [3] (setting [12]), 46.32 ± 2.20. For the same molecule, the hIMPDH2 inhibitory activity is listed as 60.24 ± 1.50 in assay [3] (setting [13]) and 76.32 ± 0.50 in assay [3] (setting [14]).

Turning to `O=c1cc(-c2ccc(O)c(O)c2)oc2c([C@@H]3O[C@H](CO)[C@@H](O)[C@H](O)[C@H]3O)c(O)cc(O)c12` [Orientin (P2), luteolin-8-C-β-glucopyranoside], the MIC in assay [1] (Helicobacter pylori, ATCC700392, read-out: MIC (H. pylori)) is 15.5 µg/mL and 34.6 µM; in assay [1] (concentration required for 100% inhibition; H. pylori ATCC 700392; read-out: MIC (H. pylori)), 34.64 µM (≈ 15.5 µg/mL). Further, the “MIC (H. pylori)” value in assay [1] (setting [15]) is 15.53 µg/mL (≈ 34.6 µM). Further, the “SI (COX-1/COX-2)” value in assay [4] is recorded as 1.58.

On to `CC[C@H](/C=C/[C@@H](C)[C@H]1CC[C@H]2[C@@H]3CC=C4C[C@@H](O)CC[C@]4(C)[C@H]3CC[C@]12C)C(C)C` [Stigmasterol (N2), stigmasterol], for which, in assay [1] (setting [15]), the “MIC (H. pylori)” value is listed as “no H. pylori inhibitory potential”. Further, in assay [4], the “SI (COX-1/COX-2)” value was 1.33.

For the molecule `COc1c(O[C@@H]2O[C@H](CO)[C@@H](O)[C@H](O)[C@H]2O)cc2occ(-c3ccc(O)cc3)c(=O)c2c1O` [Tectoridin (P1), tectorigenin-7-O-β-D-glucoside], the minimal inhibitory concentration (MIC) in assay [1] (setting [6]) was > 125 µg/mL and > 270 µM. For the same molecule, the “MIC (H. pylori)” value in assay [1] (setting [15]) is given as over 125 µg/mL; in assay [1] (concentration required for 100% inhibition; H. pylori ATCC 700392; ND = not detected; listed as tectoridine (P1)), “no activity”. For the same molecule, in assay [5], the “IC50 (COX-1)” value was “no inhibition”. Moreover, the “IC50 (COX-2)” value in assay [4] (human recombinant COX-2, ND = not detected) is listed as “no inhibition”.
